Eleven compounds from patent US20240317706A1, “COMPOUNDS THAT MEDIATE PROTEIN DEGRADATION AND METHODS OF USE THEREOF” (Monte Rosa Therapeutics, Inc., priority 2021, published 2024) can be followed below.

Each structure is given as a SMILES string. pKi: −log10 of the molar value. A value given as a limit tells only on which side of the number the result lay.

The target in one assay is T1, CDK2 (Homo sapiens, UniProt P24941).
T1 construct: HEK293 clonal lines with CRISPR KI HiBiT tag on CDK2 proteins; host or cells: HEK293 clonal line, CRISPR knock-in HiBiT-CDK2, stably expressing LgBiT
Briefly: NanoBiT assay (CDK2 degradation). The format is cell-based. The following applies: 24 hours; for Dmax: HEK293, HEK293 clonal line with CRISPR KI HiBiT tag on CDK2, Endurazine live cell substrate. As for the experimental part:
HEK293 clonal lines with CRISPR KI HiBiT tag on either CDK2 proteins and stably expressing LgBiT protein were obtained from Promega (Madison, WI). Cells were plated at 5000 cells per well using Multiflo (BioTek) in 384-well white solid bottom plates (Corning, 3570BC) in 25 ul volume in DMEM media (DMEM, high glucose, HEPES, no phenol red (ThermoFisher Scientific, 21063029)) containing 10% FBS (Corning, 35-075-CV), 1% Penicillin/Streptomycin ((ThermoFisher Scientific, 15140-122), and 1% Endurazine (Nano-Glo Endurazine Live Cell Substrate (Promega, N2571)). Cells were incubated for 16 hours at 37 C, 5% CO2. 75 nL of a compound at 30 μM were dosed into the plate using an Echo® 650 liquid handler (Labcyte). Cells were incubated at 37° C., 5% CO2 for 24 hours and then signal was read on a Pherastar FSX using “LUM plus” optic module.
Analysis was performed in Scinamic (Scinamic, Cambridge, MA). Luminescence response (R) was calculated by the formula: response=100*(S−N)/(P−N) where S is the signal of the well, N and P the mean negative and positive control values respectively of the same plate. The luminescence response was then fitted in Scinamic using a 3-parameter agonist logistic fit (hillslope=1, EC50>0, top/bottom unconstrained).
Background: The HiBiT peptide binds its large partner to form an active luciferase.

Another assay addresses CRBN-DDB1 (Homo sapiens, UniProt Q96SW2). The experiment in a line: Compound binding to CRBN by HTRF assay. The following applies: CRBN-DDB1 2.5 nM, Cy5-Thalidomide 100 nM, 30 min; Ki from geometric mean IC50 by Cheng-Prustoff transformation. As for the experimental part:
Compound activity was monitored in a Homogenous Time-Resolved Fluorescence (HTRF) assay using 1-[5-({2-[2-(2-{[2-(2,6-dioxopiperidin-3-yl)-1,3-dioxo-2,3-dihydro-1H-isoindol-4-yl]oxy}acetamido)ethoxy]ethyl}carbamoyl)pentyl]-3,3-dimethyl-2-[(1E,3E)-5-[(2E)-1,3,3-trimethyl-5-sulfo-2,3-dihydro-1H-indol-2-ylidene]penta-1,3-dien-1-yl]-3H-indol-1-ium-5-sulfonate as a fluorescent probe. Biochemical assays were conducted in Greiner white 384 well HiBase plates (Cat. No 784075-25) in 10 μL total volume. A one pot detection solution of CRBN-DDB1 (2.5 nM), Anti-His Terbium Cryptate Gold (1×, PerkinElmer Cat. #: 61HI2TLB), and Cy5-Thalidomide (100 nM, Tenova Cat.: T52461) was prepared in 20 mM HEPES, 20 mM NaCl, 0.2 mM TCEP, 0.2 mM EDTA, and 0.005% Tween20 was dispensed to each assay plate. Compounds were stored in dry, ambient temperatures at 10 mM. A 10-point, 1:3 dilution series was prepared from 10 mM stock concentrations in Echo-compatible LDV plates. 10 nL of each compound dilution series was dispensed into assays wells using an Echo 650 (Labcyte inc. USA). 10 nL of 10 mM Lenalidomide was transferred into the active-control wells for the assay and 10 nL of DMSO was transferred into the neutral-control wells. The assay was then allowed to incubate for 30 min at ambient temperature after transferring compound. Plate measurements were taken on a Pherastar FSX (BMG Labtech, Germany) using the HTRF Red filter (Ex. 337 nm, em1: 620 nm, em2: 665 nm) (Flashes: 50, Integration time: 60-400 us, Z-height: 10 mm, Ratio-multiplier: 10,000). The HTRF signal was then subsequently normalized to the neutral and active controls. Analysis and IC50 values were derived using KNIME analytics (KNIME Zurich) transformation and fitting within Collaborative Drug Discovery (Collaborative Drug Discovery USA). Ki was derived from the geometric mean of the IC50 values using the Cheng-Prustoff transformation.

Chain of CRBN-DDB1 (Q96SW2 whole entry): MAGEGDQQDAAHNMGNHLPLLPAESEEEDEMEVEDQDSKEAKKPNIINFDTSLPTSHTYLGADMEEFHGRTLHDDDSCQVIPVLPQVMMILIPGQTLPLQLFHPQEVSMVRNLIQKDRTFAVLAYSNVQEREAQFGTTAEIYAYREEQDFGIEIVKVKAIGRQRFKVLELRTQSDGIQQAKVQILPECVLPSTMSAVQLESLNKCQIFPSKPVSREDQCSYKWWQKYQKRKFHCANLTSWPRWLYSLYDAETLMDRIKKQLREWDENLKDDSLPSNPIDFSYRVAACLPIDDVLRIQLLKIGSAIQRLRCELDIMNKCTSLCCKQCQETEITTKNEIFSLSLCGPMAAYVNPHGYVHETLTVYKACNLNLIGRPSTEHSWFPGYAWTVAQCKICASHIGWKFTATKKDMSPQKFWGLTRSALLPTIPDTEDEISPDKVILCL
Chain of CRBN-DDB1 (Q16531 whole entry partner): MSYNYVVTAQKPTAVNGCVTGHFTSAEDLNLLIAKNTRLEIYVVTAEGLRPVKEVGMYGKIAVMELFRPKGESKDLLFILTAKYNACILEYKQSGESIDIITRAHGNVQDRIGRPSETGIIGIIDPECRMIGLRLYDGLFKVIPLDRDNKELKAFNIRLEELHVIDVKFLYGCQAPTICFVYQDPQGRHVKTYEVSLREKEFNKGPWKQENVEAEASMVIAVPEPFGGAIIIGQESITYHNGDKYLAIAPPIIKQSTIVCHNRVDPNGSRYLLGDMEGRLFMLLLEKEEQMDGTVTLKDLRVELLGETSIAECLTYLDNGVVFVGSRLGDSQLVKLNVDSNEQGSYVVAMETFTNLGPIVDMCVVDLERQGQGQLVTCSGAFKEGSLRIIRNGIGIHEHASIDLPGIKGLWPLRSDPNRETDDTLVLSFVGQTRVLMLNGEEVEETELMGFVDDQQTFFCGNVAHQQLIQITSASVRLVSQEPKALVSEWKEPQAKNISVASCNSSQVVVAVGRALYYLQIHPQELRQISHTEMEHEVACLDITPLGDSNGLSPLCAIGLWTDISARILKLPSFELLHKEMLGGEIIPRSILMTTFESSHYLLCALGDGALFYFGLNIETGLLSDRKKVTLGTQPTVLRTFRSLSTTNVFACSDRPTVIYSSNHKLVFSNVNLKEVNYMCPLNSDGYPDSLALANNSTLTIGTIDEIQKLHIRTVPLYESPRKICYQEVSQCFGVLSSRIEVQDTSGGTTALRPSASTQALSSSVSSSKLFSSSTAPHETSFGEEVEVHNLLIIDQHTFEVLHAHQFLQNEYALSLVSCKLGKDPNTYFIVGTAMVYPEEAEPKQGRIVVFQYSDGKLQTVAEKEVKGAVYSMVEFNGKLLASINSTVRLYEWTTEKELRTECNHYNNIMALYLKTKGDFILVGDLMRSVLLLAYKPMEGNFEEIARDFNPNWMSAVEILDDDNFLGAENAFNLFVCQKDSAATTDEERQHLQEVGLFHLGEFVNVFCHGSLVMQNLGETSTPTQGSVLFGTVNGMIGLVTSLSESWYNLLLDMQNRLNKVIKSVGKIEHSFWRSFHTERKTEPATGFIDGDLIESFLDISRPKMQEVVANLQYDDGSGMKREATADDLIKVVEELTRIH

What is called Dmax is the largest share of the target that was removed. High values mean a fuller loss of target, low ones a partial loss of target. As a reminder, the pKi is −log10 of the Ki, conventionally taken in molar units. Higher therefore signals a low Ki. Regarding `O=C1CCC(N2Cc3ccc(CNC(=O)OCC4CC5(CCCC5)C4)cc3C2=O)C(=O)N1` (stereo not shown) [Compound 115, spiro[3.4]octan-2-ylmethyl ((2-(2,6-dioxopiperidin-3-yl)-3-oxoisoindolin-5-yl)methyl)carbamate], the greatest degradation seen (Dmax) on CDK2 lay in the range of 50 to 80%. The negative logarithm of the Ki (pKi) at CRBN-DDB1 was 6.00 to 7.00.
In the case of `O=C1CCC(N2Cc3c(cc(CNc4nnc(C5CC6(CCC6)C5)o4)cc3C(F)(F)F)C2=O)C(=O)N1` (stereo not shown) [Compound 139, 3-(1-oxo-6-(((5-(spiro[3.3]heptan-2-yl)-1,3,4-oxadiazol-2-yl)amino)methyl)-4-(trifluoromethyl)isoindolin-2-yl)piperidine-2,6-dione], the “CDK2 NanoBiT Dmax (%)” value on CDK2 (HEK293 clonal line with CRISPR KI HiBiT tag on CDK2, Endurazine live cell substrate) is “C (C represents a Dmax value of >50% and ≤80%)”. Moreover, the pKi at CRBN-DDB1 was 6.00 to 7.00.
Consider `CC12COC(COC(=O)NCc3ccc4c(c3)C(=O)N(C3CCC(=O)NC3=O)C4)(C1)C2` (stereo not shown) [Compound 72, {4-methyl-2-oxabicyclo[2.1.1]hexan-1-yl}methyl N-{[2-(2,6-dioxopiperidin-3-yl)-3-oxo-2,3-dihydro-1H-isoindol-5-yl]methyl}carbamate], for which the Dmax at CDK2 is not above 10%. Also, the pKi at CRBN-DDB1 was 6.00 to 7.00.
Taken in the same sequence, the figures for `COCC(OC(=O)NCc1ccc2c(c1)C(=O)N(C1CCC(=O)NC1=O)C2)C1CC1` (stereo not shown) [Compound 49, 1-cyclopropyl-2-methoxyethyl N-{[2-(2,6-dioxopiperidin-3-yl)-3-oxo-2,3-dihydro-1H-isoindol-5-yl]methyl}carbamate] were 10 to 50% and 6.00 to 7.00.
Taken in the same sequence, the figures for `CC1(CCCCOC(=O)NCc2ccc3c(c2)C(=O)N(C2CCC(=O)NC2=O)C3)CC1` (stereo not shown) [Compound 134, 4-(1-methylcyclopropyl)butyl ((2-(2,6-dioxopiperidin-3-yl)-3-oxoisoindolin-5-yl)methyl)carbamate] were 10 to 50% and not below 7.00.
Taken in the same sequence, the figures for `CC(C)(C)OC(=O)N1CC(COC(=O)NCc2ccc3c(c2)C(=O)N(C2CCC(=O)NC2=O)C3)C1` (stereo not shown) [Compound 45, tert-butyl 3-{[({[2-(2,6-dioxopiperidin-3-yl)-3-oxo-2,3-dihydro-1H-isoindol-5-yl]methyl}carbamoyl)oxy]methyl}azetidine-1-carboxylate] were not above 10% and 6.00 to 7.00.
On to `CC1(COC(=O)NCc2ccc3c(c2)C(=O)N(C2CCC(=O)NC2=O)C3)CCOCC1` (stereo not shown) [Compound 83, (4-methyloxan-4-yl)methyl N-{[2-(2,6-dioxopiperidin-3-yl)-3-oxo-2,3-dihydro-1H-isoindol-5-yl]methyl}carbamate], for which the greatest degradation seen (Dmax) at CDK2 is not above 10%. The compound also gave a pKi on CRBN-DDB1 of 6.00 to 7.00.
Taken in the same sequence, the figures for `O=C1CCC(N2Cc3cc(F)c(CNC(=O)OCC4CC5(CCC5)C4)cc3C2=O)C(=O)N1` (stereo not shown) [Compound 123, spiro[3.3]heptan-2-ylmethyl ((2-(2,6-dioxopiperidin-3-yl)-6-fluoro-3-oxoisoindolin-5-yl)methyl)carbamate] were 10 to 50% and 6.00 to 7.00.
Taken in the same sequence, the figures for `CC(OC(=O)NCc1ccc2c(c1)C(=O)N(C1CCC(=O)NC1=O)C2)C1CC2(CCC2)C1` (stereo not shown) [Compound 113, 1-(spiro[3.3]heptan-2-yl)ethyl ((2-(2,6-dioxopiperidin-3-yl)-3-oxoisoindolin-5-yl)methyl)carbamate] were 10 to 50% and 6.00 to 7.00.
Taken in the same sequence, the figures for `Cc1cc(CNC(=O)OCC2CC3(CCC3)C2)cc2c1CN(C1CCC(=O)NC1=O)C2=O` (stereo not shown) [Compound 105, spiro[3.3]heptan-2-ylmethyl ((2-(2,6-dioxopiperidin-3-yl)-7-methyl-3-oxoisoindolin-5-yl)methyl)carbamate] were 50 to 80% and not below 7.00.
Consider `O=C1CCC(N2Cc3ccc(CNC(=O)OCCCC4CCC4)cc3C2=O)C(=O)N1` (stereo not shown) [Compound 128, 3-cyclobutylpropyl ((2-(2,6-dioxopiperidin-3-yl)-3-oxoisoindolin-5-yl)methyl)carbamate], for which, at CDK2, the Dmax is 10 to 50%. This compound also had a negative logarithm of the Ki (pKi) at CRBN-DDB1 of 6.00 to 7.00.
